According to ChEMBL document CHEMBL1914405, “Discovery of novel spirocyclic inhibitors of fatty acid amide hydrolase (FAAH). Part 1: identification of 7-azaspiro[3.5]nonane and 1-oxa-8-azaspiro[4.5]decane as lead scaffolds” (Bioorg Med Chem Lett, 2011):
Calls of active or inactive are those of the source. The calls are words filed in the database; no cut-off is given here.

Columns and labels:
[1] = target: T1, Fatty-acid amide hydrolase 1 (Homo sapiens) (UniProt O00519); test: Ratio of Kinact to Ki for human FAAH by enzyme coupled assay
T1 sequence (whole entry): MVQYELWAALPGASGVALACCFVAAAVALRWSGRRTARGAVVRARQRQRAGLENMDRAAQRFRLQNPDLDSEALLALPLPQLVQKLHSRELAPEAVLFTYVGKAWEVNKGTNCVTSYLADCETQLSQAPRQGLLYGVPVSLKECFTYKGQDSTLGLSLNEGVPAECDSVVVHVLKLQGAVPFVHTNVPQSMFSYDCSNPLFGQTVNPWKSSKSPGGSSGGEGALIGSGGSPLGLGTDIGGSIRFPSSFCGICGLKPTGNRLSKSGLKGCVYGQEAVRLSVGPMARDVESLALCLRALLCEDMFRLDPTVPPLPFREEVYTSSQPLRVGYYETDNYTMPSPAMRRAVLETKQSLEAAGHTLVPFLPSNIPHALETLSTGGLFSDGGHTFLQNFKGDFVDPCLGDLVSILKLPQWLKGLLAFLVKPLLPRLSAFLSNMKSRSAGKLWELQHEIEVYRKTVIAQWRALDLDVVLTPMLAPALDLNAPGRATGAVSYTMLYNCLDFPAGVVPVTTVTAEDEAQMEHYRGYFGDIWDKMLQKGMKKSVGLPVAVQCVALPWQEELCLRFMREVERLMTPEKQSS

[2] = target: Voltage-gated inwardly rectifying potassium channel KCNH2 (Homo sapiens, UniProt Q12809); test: Inhibition of human ERG
Sequence of Voltage-gated inwardly rectifying potassium channel KCNH2 (Q12809 whole entry): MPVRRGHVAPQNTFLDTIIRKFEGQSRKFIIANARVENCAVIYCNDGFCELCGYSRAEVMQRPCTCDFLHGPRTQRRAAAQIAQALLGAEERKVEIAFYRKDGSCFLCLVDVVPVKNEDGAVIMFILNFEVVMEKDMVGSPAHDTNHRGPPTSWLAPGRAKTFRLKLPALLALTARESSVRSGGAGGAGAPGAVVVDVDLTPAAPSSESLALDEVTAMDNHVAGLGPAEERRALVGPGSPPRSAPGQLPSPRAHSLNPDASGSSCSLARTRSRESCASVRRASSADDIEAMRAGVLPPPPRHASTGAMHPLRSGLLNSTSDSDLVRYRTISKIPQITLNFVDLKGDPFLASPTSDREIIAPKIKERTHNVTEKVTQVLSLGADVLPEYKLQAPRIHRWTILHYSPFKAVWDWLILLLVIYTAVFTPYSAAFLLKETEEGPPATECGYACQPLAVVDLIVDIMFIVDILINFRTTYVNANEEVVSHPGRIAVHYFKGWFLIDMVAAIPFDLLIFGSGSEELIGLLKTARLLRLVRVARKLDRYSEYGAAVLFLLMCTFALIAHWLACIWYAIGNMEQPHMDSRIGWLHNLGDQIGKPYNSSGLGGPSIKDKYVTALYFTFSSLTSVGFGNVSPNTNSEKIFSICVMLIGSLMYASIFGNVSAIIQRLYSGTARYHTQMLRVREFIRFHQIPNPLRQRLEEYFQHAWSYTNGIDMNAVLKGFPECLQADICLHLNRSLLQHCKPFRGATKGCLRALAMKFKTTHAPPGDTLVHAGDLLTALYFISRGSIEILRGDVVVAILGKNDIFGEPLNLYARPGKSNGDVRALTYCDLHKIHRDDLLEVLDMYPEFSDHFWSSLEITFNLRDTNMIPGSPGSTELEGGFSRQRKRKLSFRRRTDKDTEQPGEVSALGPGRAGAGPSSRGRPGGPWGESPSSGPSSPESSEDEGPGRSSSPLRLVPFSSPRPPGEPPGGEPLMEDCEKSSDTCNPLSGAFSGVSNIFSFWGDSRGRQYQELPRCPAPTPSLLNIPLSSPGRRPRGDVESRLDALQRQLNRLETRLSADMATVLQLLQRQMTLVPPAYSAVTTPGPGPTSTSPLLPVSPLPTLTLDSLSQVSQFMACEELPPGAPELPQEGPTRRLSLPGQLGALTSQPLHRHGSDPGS

Rattus norvegicus = test: Analgesic activity against complete Freund's adjuvant-induced pain in rat at 25 mg/kg, ip; format: functional, organism-based; parameters: dose 25 mg/kg

Ratio [1] [M⁻¹ s⁻¹]	Compound	inhibition (INH) [2]	Activity (Rattus norvegicus)
344	O=C(Nc1cccnn1)N1CCC2(CC1)CC(CCc1cccc(Oc3ccc(C(F)(F)F)cn3)c1)C2	–	–
3130	O=C(Nc1cccnn1)N1CCC2(CC1)CC(c1cccc(Oc3ccc(C(F)(F)F)cn3)c1)CO2 (racemic)	–	–
515	Cc1noc(NC(=O)N2CCC3(CC2)CC(c2cccc(Oc4ccc(C(F)(F)F)cn4)c2)CO3)c1C (stereo not drawn)	–	–
18.3	O=C(Nc1cccnn1)N1CCC2(CC1)CN(c1cccc(Oc3ccc(C(F)(F)F)cn3)c1)C2	–	–
272	O=C(Nc1cccnn1)N1CCC2(CC1)CC(Cc1cccc(Oc3ccc(C(F)(F)F)cn3)c1)C2	–	–
3040	O=C(Nc1cccnn1)N1CCC2(CC1)C[C@H](c1cccc(Oc3ccc(C(F)(F)F)cn3)c1)CO2	Active	–
1760	Cc1noc(NC(=O)N2CCC3(CC2)CC(c2cccc(Oc4ccc(C(F)(F)F)cn4)c2)C3)c1C	Active	Active
846	O=C(Nc1cccnc1)N1CCC2(CC1)CC(Cc1cccc(Oc3ccc(C(F)(F)F)cn3)c1)CO2 (stereo not drawn)	–	–
2080	O=C(Nc1cccnc1)N1CCC2(CC1)CC(c1cccc(Oc3ccc(C(F)(F)F)cn3)c1)CO2 (stereo not drawn)	–	–
307	O=C(Nc1cccnn1)N1CCC2(CCC(c3cccc(Oc4ccc(C(F)(F)F)cn4)c3)C2)CC1 (stereo not drawn)	–	–
1340	O=C(Nc1cccnn1)N1CCC2(CC1)C[C@@H](c1cccc(Oc3ccc(C(F)(F)F)cn3)c1)CO2	–	–
914	O=C(Nc1cccnc1)N1CCC2(CC1)CC(c1cccc(Oc3ccc(C(F)(F)F)cn3)c1)C2	–	–
229	O=C(Nc1cccnn1)N1CCC2(CCC(c3cccc(Oc4ccc(C(F)(F)F)cn4)c3)O2)CC1 (stereo not drawn)	–	–
1570	O=C(Nc1cccnn1)N1CCC2(CC1)CC(c1cccc(Oc3ccc(C(F)(F)F)cn3)c1)C2	Active	–
